The values that follow come from the supplement of paper PMC11061612.

What all share (assay): combination Emax (second highest fraction inhibited in the dose matrix, 72 h); higher = more inhibition; extreme values may be limits of the assay
Experiment [1] concerns CAL-39 (Other Solid Carcinomas). The essentials:
(§1)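 Bliss excess equals the observed combination effect minus the expected value EA + EB − EA·EB, where EA and EB are the effects of each agent alone. Combination Emax is the second-highest inhibition within the matrix. Inhibition was scaled from CellTiter-Glo 2.0 luminescence, with 0 set by vehicle wells and 1 by blank wells, after 72 hours of two-drug dosing of cells plated in 1536-well plates.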

For experiment [2], the system named is D-283MED (Other Solid Carcinomas). The essentials:
as §1

For experiment [3], the system named is EFM-192A (Breast Carcinoma). The essentials: as §1
The test system of experiment [4] is EKVX (Non-Small Cell Lung Carcinoma). The essentials: as §1
In another experiment the test system is H4 (Low Grade Glioma). The essentials: as §1
Experiment [5] has as its system HCC-827 (Lung Adenocarcinoma). The essentials: as §1
Experiment [6] deals with HCT-116 (Colorectal Carcinoma). The essentials:
as §1

In a further experiment the test system is HuO9 (Osteosarcoma). The essentials:
as §1

The test system of a further experiment is MCF7 (Breast Carcinoma). The essentials: as §1
For a further experiment, the system named is MSTO-211H (Mesothelioma). The essentials: as §1
Experiment [7] deals with NCI-H1688 (Small Cell Lung Carcinoma). The essentials: as §1
Experiment [8] relates to NOMO-1 (Acute Myeloid Leukemia). The essentials:
as §1

For experiment [9], the system named is RCC10RGB (Kidney Carcinoma). The essentials: as §1
In experiment [10] the test system is SK-LMS-1 (Other Solid Carcinomas). The essentials: as §1
A further experiment deals with SK-MEL-1 (Melanoma). The essentials:
as §1

In experiment [11] the test system is SKN-3 (Head and Neck Carcinoma). The essentials: as §1
Experiment [12] relates to SLVL (B-Cell Non-Hodgkin's Lymphoma). The essentials: as §1
Experiment [13] has as its system SW48 (Colorectal Carcinoma). The essentials: as §1
The test system of experiment [14] is SW948 (Colorectal Carcinoma). The essentials: as §1
In a further experiment the test system is Saos-2 (Osteosarcoma). The essentials:
as §1

`CC1(C)CCC(CN2CCN(c3ccc(C(=O)NS(=O)(=O)c4ccc(NCC5CCOCC5)c([N+](=O)[O-])c4)c(Oc4cnc5[nH]ccc5c4)c3)CC2)=C(c2ccc(Cl)cc2)C1` [Venetoclax] + CCN(CCO)CCCOc1ccc2c(Nc3cc(CC(=O)Nc4cccc(F)c4)[nH]n3)ncnc2c1 [AZD2811] (first compound max 1 µM, 7x7, partner max 1 µM): the “combination Emax” value in experiment [1] turned out to be 0.285; in experiment [2], 0.778; in experiment [3], 0.212; in experiment [4], 0.178; with H4 (Low Grade Glioma) it was 0.583; in experiment [5], 0.254. Besides, the “combination Emax” value in experiment [6] amounted to 0.456; in the experiment with HuO9 (Osteosarcoma) it was 0.336; in the experiment on MCF7 (Breast Carcinoma), 0.31; in the experiment on MSTO-211H (Mesothelioma), 0.394; in experiment [7], 0.242; in [8], 0.905. Moreover, the “combination Emax” value came to 0.212 in [9]; 0.229 in experiment [10]; 0.292 in the experiment on SK-MEL-1 (Melanoma); 0.19 in experiment [11]; 0.901 in experiment [12]; 0.958 in experiment [13]. The “combination Emax” value in [14] is 0.799; in the experiment with Saos-2 (Osteosarcoma) it was 0.648.

`Cc1c2c(nn1C)CSCc1cc(n(C)n1)CSc1cc(c3ccccc3c1)OCCCc1c(C(=O)O)n(C)c3c-2c(Cl)ccc13` [AZD5991] + C=CCn1c(=O)c2cnc(Nc3ccc(N4CCN(C)CC4)cc3)nc2n1-c1cccc(C(C)(C)O)n1 [AZD1775] (first compound max 1 µM, partner max 1 µM): the “combination Emax” value was 0.677 in experiment [1]; 0.971 in experiment [2]; 0.71 in experiment [3]; 0.316 in [4]; 0.9 in the experiment on H4 (Low Grade Glioma); 0.401 in experiment [5]. Moreover, the “combination Emax” value in experiment [6] is 0.641; in the experiment on HuO9 (Osteosarcoma), 1; with MCF7 (Breast Carcinoma), 0.652; with MSTO-211H (Mesothelioma) it was 0.596; in [7], 0.601; in [8], 0.989. Moreover, the “combination Emax” value was found to be 0.541 in [9]; 0.431 in experiment [10]; 0.402 in the experiment with SK-MEL-1 (Melanoma); 0.696 in experiment [11]; 0.937 in experiment [12]; 0.402 in experiment [13]. For the same compound, the “combination Emax” value in [14] amounted to 0.714; with Saos-2 (Osteosarcoma), 0.801.

As to `CC1(C)CCC(CN2CCN(c3ccc(C(=O)NS(=O)(=O)c4ccc(NCC5CCOCC5)c([N+](=O)[O-])c4)c(Oc4cnc5[nH]ccc5c4)c3)CC2)=C(c2ccc(Cl)cc2)C1` [Venetoclax] + Cn1cnc2c(F)c(Nc3ccc(Br)cc3Cl)c(C(=O)NOCCO)cc21 [Selumetinib] (first compound max 1 µM, 7x7, partner max 3 µM), the “combination Emax” value in [1] came out at 0.535; in experiment [2], 0.523; in experiment [3], 0.11; in [4], 0.343; with H4 (Low Grade Glioma), 0.232; in experiment [5], 0.184. Further, the “combination Emax” value is 0.506 in experiment [6]; 0.177 in the experiment on HuO9 (Osteosarcoma); 0.104 with MCF7 (Breast Carcinoma); 0.172 in the experiment on MSTO-211H (Mesothelioma); 0.121 in [7]; 0.994 in [8]. The “combination Emax” value in experiment [9] was 0.447; in experiment [10] it was 0.203; in the experiment on SK-MEL-1 (Melanoma), 0.872; in experiment [11], 0.286; in [12], 0.735; in experiment [13], 0.52. Further, the “combination Emax” value in experiment [14] amounted to 0.577; in the experiment on Saos-2 (Osteosarcoma), 0.299.

Regarding `Cc1cc2ncnn2cc1Nc1ncc2c(n1)n(C1CCOCC1)c(=O)n2C` [AZD7648] + CCN(CCO)CCCOc1ccc2c(Nc3cc(CC(=O)Nc4cccc(F)c4)[nH]n3)ncnc2c1 [AZD2811] (first compound max 10 µM, 7x7, partner max 1 µM), the “combination Emax” value in [1] turned out to be 0.433; in experiment [2], 0.74; in [3] it was 0.345; in experiment [4], 0.309; with H4 (Low Grade Glioma), 0.711; in experiment [5], 0.24. The “combination Emax” value in experiment [6] is 0.528; in the experiment on HuO9 (Osteosarcoma) it was 0.369; in the experiment on MCF7 (Breast Carcinoma), 0.55; in the experiment on MSTO-211H (Mesothelioma), 0.469; in experiment [7], 0.201; in experiment [8], 0.606. Moreover, the “combination Emax” value came out at 0.264 in experiment [9]; 0.409 in experiment [10]; 0.3 in the experiment with SK-MEL-1 (Melanoma); 0.128 in experiment [11]; 0.687 in experiment [12]; 0.963 in [13]. For the same compound, the “combination Emax” value in experiment [14] was 0.737; with Saos-2 (Osteosarcoma), 0.45.

With `Cc1c2c(nn1C)CSCc1cc(n(C)n1)CSc1cc(c3ccccc3c1)OCCCc1c(C(=O)O)n(C)c3c-2c(Cl)ccc13` [AZD5991] + CC1(C)CCC(CN2CCN(c3ccc(C(=O)NS(=O)(=O)c4ccc(NCC5CCOCC5)c([N+](=O)[O-])c4)c(Oc4cnc5[nH]ccc5c4)c3)CC2)=C(c2ccc(Cl)cc2)C1 [Venetoclax] (first compound max 1 µM, 7x7, partner max 1 µM), the “combination Emax” value in experiment [1] worked out at 0.292; in [2] it was 0.639; in experiment [3] it was 0.873; in experiment [4], 0.138; in the experiment with H4 (Low Grade Glioma) it was 0.726; in experiment [5], 0.182. Further, the “combination Emax” value was determined as 0.163 in experiment [6]; 1 in the experiment on HuO9 (Osteosarcoma); 0.745 in the experiment with MCF7 (Breast Carcinoma); 0.137 with MSTO-211H (Mesothelioma); 0.702 in experiment [7]; 0.981 in [8]. The “combination Emax” value in experiment [9] is 0.221; in [10], 0.115; with SK-MEL-1 (Melanoma) it was 0.22; in [11], 0.15; in experiment [12], 0.777; in experiment [13], 0.339. For the same compound, the “combination Emax” value in experiment [14] was 0.236; with Saos-2 (Osteosarcoma), 0.534.

On to `Cc1c2c(nn1C)CSCc1cc(n(C)n1)CSc1cc(c3ccccc3c1)OCCCc1c(C(=O)O)n(C)c3c-2c(Cl)ccc13` [AZD5991] + C[C@@H]1COCCN1C2=NC(=NC(=C2)C3(CC3)[S@](=N)(=O)C)C4=C5C=CNC5=NC=C4 [AZD6738] (first compound max 1 µM, 7x7, partner max 10 µM), for which the “combination Emax” value was 0.645 in experiment [1]; 0.992 in experiment [2]; 0.735 in experiment [3]; 0.29 in [4]; 0.813 with H4 (Low Grade Glioma); 0.426 in experiment [5]. Also, the “combination Emax” value in [6] came to 0.63; in the experiment on HuO9 (Osteosarcoma), 1; in the experiment on MCF7 (Breast Carcinoma) it was 0.776; with MSTO-211H (Mesothelioma) it was 0.688; in [7], 0.47; in experiment [8], 0.995. The “combination Emax” value in [9] came to 0.43; in [10] it was 0.453; with SK-MEL-1 (Melanoma), 0.226; in experiment [11] it was 0.687; in experiment [12], 0.873; in [13], 0.739. Besides, the “combination Emax” value turned out to be 0.563 in experiment [14] and 0.6 in the experiment with Saos-2 (Osteosarcoma).
